ChEMBL document CHEMBL4665650, “Towards a TREK-1/2 (TWIK-Related K+ Channel 1 and 2) dual activator tool compound: Multi-dimensional optimization of BL-1249” (Bioorg Med Chem Lett, 2019)

Columns and labels:
[1] = target: Adenosine receptor A2a (Homo sapiens) (UniProt P29274); assay: Displacement of [3H]CGS-21680 from full length recombinant human A2A receptor expressed in HEK293 cells at 30 uM measured after 90 mins by radiometric scintillation analysis relative to control; type: cell-based
[2] = target: T1, Potassium channel subfamily K member 2 (Homo sapiens) (UniProt O95069); assay: Activation of human TREK1 at 30 uM by thallium flux mobilization assay relative to control; settings: filed as activator
T1 sequence (whole entry): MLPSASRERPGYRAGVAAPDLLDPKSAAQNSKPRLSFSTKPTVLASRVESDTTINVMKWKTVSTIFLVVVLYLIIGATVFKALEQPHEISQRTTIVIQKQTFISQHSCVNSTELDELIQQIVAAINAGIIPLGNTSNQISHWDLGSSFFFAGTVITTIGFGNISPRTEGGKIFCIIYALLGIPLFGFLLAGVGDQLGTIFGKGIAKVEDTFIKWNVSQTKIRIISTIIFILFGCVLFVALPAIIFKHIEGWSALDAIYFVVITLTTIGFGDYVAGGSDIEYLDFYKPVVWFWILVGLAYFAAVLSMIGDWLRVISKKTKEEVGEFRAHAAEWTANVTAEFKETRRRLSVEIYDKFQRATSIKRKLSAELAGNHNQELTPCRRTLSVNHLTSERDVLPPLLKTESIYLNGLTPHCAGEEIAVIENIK

[3] = target: Kv7.1 (Homo sapiens, UniProt P51787); assay: Inhibition of Kv7.1 (unknown origin) at 30 uM by manual patch clamp method relative to control
[4] = target: T2, Potassium channel subfamily K member 2 (Homo sapiens, UniProt O95069); assay: Activation of human TREK1 by thallium flux mobilization assay
T2 sequence (O95069 whole entry): T1 sequence (whole entry)

[5] = target: Sodium-dependent noradrenaline transporter (Homo sapiens) (UniProt P23975); assay: Displacement of [125I]RTI-55 from full length recombinant human NET expressed in MDCK cells at 30 uM after 180 mins by radiometric scintillation analysis relative to control; type: cell-based
[6] = target: Potassium/sodium hyperpolarization-activated cyclic nucleotide-gated channel 4 (Homo sapiens) (UniProt Q9Y3Q4); assay: Activation of HCN4 (unknown origin) at 30 uM by manual patch clamp method relative to control
[7] = Fraction unbound in human plasma; type: ADME, cell-free
[8] = target: Androgen receptor (Homo sapiens) (UniProt P10275); assay: Displacement of [3H]methyltrienolone from human LNCaP cells derived androgen receptor at 30 uM measured after 1200 mins by radiometric scintillation analysis relative to control; type: cell-based
[9] = target: Intermediate conductance calcium-activated potassium channel protein 4 (Homo sapiens) (UniProt O15554); assay: Activation of Kca3.1 (unknown origin) at 30 uM by manual patch clamp method relative to control
[10] = target: Adenosine receptor A1 (Homo sapiens) (UniProt P30542); assay: Displacement of [3H]DPCPX from recombinant full length human adenosine A1 receptor expressed in CHO-K1 cells at 30 uM incubated for 90 mins by radiometric scintillation analysis relative to control; type: cell-based
[11] = Elimination half life in rat at 3 mg/kg, po; type: ADME, organism-based; settings: in vivo, read-out: beta t1/2 (converted)
[12] = Cmax in rat at 3 mg/kg, po; type: ADME, organism-based; set-up: route oral, dose 3 mg/kg; settings: in vivo
[13] = target: A-type potassium channel modulatory protein KCNIP2 (Homo sapiens) (UniProt Q9NS61); assay: Inhibition of KCHiP (unknown origin) at 30 uM by manual patch clamp method relative to control
[14] = target: Sodium-dependent dopamine transporter (Homo sapiens) (UniProt Q01959); assay: Displacement of [125I]RTI-55 from full length recombinant human dopamine transporter expressed in CHO-S cells at 30 uM after 180 mins by radiometric scintillation analysis relative to control; type: cell-based
[15] = target: Cysteinyl leukotriene receptor 1 (Homo sapiens) (UniProt Q9Y271); assay: Displacement of [3H]LTD4 from full length recombinant human CysLT1 Leukotriene receptor expressed in CHO-K1 cells at 30 uM incubated for 30 mins by radiometric scintillation analysis relative to control; type: cell-based
[16] = organism: Rattus norvegicus; assay: Displacement of [125I]-Triiodothyronine from thyroid hormone receptors in rat at 30 uM incubated for 1080 mins by radiometric scintillation analysis relative to control
[17] = target: T3, Potassium channel subfamily K member 10 (Homo sapiens, UniProt P57789); assay: Activation of human TREK2 by thallium flux mobilization assay
T3 sequence (P57789 whole entry): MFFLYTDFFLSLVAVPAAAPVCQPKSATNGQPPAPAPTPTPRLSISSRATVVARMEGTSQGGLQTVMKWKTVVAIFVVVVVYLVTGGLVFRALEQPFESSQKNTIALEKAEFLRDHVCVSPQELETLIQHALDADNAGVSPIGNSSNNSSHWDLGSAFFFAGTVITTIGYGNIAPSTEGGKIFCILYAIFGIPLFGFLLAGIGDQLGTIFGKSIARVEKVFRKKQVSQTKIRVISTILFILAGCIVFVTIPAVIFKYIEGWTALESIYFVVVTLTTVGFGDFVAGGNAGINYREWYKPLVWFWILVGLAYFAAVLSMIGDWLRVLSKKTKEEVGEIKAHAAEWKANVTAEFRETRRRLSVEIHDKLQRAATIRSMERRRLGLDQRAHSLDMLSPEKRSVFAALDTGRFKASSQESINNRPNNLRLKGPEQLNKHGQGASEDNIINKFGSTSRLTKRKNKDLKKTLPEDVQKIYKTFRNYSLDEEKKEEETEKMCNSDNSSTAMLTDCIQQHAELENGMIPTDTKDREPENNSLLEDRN

[18] = target: Potassium voltage-gated channel subfamily A member 3 (Homo sapiens) (UniProt P22001); assay: Inhibition of Kv1.3 (unknown origin) at 30 uM by manual patch clamp method relative to control
[19] = target: Potassium voltage-gated channel subfamily KQT member 3 (Homo sapiens) (UniProt O43525); assay: Inhibition of Kv7.3 (unknown origin) at 30 uM by manual patch clamp method relative to control
[20] = AUC in rat at 3 mg/kg, po; type: ADME, organism-based; set-up: dose 3 mg/kg; settings: in vivo
[21] = organism: Rattus norvegicus; assay: Displacement of [35S] dATPalphaS from Wistar rat brain P2Y receptor at 30 uM incubated for 180 mins by radiometric scintillation analysis relative to control; type: tissue-based
[22] = Fraction unbound in rat plasma; type: ADME, cell-free
[23] = target: A-type voltage-gated potassium channel KCND3 (Homo sapiens, UniProt Q9UK17); assay: Activation of Kv4.3 (unknown origin) at 30 uM by manual patch clamp method relative to control
[24] = organism: Rattus norvegicus; assay: Displacement of [3H]GABA from rat brain GABA receptor at 30 uM after 20 mins by radiometric scintillation analysis relative to control
[25] = target: 5-hydroxytryptamine receptor 1A (Homo sapiens) (UniProt P08908); assay: Displacement of [3H]-8-OH-DPAT from full length recombinant human 5HT1A receptor expressed in CHO-K1 cells at 30 uM incubated for 60 mins by radiometric scintillation analysis relative to control; type: cell-based
[26] = target: Neuronal acetylcholine receptor subunit alpha-7 (Homo sapiens) (UniProt P36544); assay: Inhibition of alpha7 nAChR (unknown origin) at 30 uM by manual patch clamp method relative to control
[27] = target: T4, Potassium channel subfamily K member 10 (Homo sapiens) (UniProt P57789); assay: Activation of human TREK2 at 30 uM by thallium flux mobilization assay relative to control; settings: filed as activator
T4 sequence (whole entry): T3 sequence (P57789 whole entry)

[28] = target: Inward rectifier potassium channel 2 (Homo sapiens, UniProt P63252); assay: Activation of Kir2.1 (unknown origin) at 30 uM by manual patch clamp method relative to control
[29] = Fraction unbound in mouse plasma; type: ADME, cell-free
[30] = Half life in rat at 0.05 mg/kg, iv administered as cassette dose; type: ADME, organism-based; settings: in vivo

Chain of Cysteinyl leukotriene receptor 1 (Homo sapiens) (Q9Y271 whole entry): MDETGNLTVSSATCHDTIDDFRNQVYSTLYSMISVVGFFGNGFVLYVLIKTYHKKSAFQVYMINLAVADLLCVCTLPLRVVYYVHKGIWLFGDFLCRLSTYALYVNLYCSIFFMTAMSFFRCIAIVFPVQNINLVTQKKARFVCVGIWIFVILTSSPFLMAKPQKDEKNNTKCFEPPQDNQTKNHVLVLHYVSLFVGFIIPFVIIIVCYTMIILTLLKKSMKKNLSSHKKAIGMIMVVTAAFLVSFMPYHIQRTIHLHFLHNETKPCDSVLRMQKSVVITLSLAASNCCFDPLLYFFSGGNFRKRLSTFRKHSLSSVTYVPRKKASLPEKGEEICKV
Chain of 5-hydroxytryptamine receptor 1A (Homo sapiens) (P08908 whole entry): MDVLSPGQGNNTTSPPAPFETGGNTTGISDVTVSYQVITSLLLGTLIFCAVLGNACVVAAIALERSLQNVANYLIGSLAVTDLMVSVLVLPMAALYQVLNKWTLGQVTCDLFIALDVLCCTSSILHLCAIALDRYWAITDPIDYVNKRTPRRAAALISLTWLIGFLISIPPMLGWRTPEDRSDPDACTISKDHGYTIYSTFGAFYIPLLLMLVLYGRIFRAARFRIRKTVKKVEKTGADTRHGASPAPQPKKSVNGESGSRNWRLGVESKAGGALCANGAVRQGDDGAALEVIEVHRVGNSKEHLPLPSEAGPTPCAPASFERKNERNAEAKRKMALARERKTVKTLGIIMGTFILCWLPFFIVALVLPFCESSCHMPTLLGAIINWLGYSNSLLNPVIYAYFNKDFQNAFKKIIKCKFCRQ
Chain of A-type potassium channel modulatory protein KCNIP2 (Homo sapiens) (Q9NS61 whole entry): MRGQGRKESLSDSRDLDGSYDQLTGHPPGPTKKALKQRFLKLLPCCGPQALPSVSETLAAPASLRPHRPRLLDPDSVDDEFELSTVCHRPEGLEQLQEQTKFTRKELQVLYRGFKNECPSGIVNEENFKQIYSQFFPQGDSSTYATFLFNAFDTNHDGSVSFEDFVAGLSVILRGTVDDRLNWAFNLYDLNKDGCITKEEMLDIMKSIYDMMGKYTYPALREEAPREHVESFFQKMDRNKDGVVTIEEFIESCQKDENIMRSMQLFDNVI
Chain of Sodium-dependent noradrenaline transporter (Homo sapiens) (P23975 whole entry): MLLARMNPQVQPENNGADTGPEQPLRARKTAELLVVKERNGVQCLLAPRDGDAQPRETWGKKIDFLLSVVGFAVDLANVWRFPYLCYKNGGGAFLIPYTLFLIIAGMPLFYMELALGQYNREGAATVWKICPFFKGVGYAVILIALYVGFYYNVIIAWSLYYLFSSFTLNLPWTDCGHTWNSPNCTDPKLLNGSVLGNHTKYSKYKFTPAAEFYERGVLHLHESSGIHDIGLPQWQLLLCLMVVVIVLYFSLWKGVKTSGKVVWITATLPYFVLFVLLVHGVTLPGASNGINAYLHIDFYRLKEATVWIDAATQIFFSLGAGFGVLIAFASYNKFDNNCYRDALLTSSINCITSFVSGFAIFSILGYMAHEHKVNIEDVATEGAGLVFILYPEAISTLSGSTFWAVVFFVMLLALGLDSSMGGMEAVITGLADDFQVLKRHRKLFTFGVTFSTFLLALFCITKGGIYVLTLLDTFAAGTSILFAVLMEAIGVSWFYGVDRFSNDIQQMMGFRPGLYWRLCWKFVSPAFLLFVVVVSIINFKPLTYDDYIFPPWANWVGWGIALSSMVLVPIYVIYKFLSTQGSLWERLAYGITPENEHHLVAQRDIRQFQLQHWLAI
Chain of Androgen receptor (Homo sapiens) (P10275 whole entry): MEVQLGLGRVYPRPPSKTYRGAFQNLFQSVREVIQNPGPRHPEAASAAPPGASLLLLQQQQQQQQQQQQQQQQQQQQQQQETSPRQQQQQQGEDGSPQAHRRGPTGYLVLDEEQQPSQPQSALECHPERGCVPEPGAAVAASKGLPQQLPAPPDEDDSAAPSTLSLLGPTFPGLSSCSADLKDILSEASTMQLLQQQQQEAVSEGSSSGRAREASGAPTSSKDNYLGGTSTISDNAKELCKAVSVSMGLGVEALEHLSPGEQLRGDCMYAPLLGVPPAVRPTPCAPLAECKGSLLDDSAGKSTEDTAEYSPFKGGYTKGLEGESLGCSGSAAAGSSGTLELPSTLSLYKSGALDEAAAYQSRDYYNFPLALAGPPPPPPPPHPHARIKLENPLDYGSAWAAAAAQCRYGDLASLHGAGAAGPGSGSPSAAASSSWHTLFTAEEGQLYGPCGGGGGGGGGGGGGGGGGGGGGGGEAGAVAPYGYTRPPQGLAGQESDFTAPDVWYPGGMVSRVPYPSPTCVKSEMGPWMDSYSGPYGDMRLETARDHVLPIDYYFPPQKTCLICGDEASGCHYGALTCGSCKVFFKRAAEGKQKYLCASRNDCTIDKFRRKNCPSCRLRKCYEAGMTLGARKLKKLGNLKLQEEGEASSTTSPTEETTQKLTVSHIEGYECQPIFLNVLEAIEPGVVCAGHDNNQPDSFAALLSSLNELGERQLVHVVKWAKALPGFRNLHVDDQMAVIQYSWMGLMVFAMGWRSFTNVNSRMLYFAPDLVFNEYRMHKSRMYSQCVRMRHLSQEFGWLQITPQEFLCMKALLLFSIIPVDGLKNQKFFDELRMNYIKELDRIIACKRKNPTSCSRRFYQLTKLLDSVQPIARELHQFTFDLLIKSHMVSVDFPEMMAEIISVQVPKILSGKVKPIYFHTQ
Chain of Intermediate conductance calcium-activated potassium channel protein 4 (Homo sapiens) (O15554 whole entry): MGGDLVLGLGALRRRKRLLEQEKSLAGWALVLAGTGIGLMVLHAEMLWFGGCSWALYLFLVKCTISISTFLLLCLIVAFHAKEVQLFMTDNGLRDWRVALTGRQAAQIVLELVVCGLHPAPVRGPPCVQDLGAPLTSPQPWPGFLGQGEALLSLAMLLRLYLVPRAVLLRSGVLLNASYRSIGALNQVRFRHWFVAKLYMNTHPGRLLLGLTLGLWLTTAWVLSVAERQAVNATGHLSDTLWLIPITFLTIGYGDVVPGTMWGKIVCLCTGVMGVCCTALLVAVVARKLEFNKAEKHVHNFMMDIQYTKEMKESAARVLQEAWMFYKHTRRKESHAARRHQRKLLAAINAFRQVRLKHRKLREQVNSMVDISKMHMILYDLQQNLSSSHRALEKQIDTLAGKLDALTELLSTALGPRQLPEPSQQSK
Chain of Adenosine receptor A1 (Homo sapiens) (P30542 whole entry): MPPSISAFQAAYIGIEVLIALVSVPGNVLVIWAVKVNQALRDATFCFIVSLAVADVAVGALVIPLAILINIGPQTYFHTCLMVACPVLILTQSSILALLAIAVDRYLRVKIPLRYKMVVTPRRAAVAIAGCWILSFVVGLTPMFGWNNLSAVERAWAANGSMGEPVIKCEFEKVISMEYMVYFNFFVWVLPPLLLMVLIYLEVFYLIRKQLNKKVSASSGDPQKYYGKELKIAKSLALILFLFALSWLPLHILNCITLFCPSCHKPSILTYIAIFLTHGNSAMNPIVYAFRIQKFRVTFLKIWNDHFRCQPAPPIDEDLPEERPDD
Chain of A-type voltage-gated potassium channel KCND3 (Q9UK17 whole entry): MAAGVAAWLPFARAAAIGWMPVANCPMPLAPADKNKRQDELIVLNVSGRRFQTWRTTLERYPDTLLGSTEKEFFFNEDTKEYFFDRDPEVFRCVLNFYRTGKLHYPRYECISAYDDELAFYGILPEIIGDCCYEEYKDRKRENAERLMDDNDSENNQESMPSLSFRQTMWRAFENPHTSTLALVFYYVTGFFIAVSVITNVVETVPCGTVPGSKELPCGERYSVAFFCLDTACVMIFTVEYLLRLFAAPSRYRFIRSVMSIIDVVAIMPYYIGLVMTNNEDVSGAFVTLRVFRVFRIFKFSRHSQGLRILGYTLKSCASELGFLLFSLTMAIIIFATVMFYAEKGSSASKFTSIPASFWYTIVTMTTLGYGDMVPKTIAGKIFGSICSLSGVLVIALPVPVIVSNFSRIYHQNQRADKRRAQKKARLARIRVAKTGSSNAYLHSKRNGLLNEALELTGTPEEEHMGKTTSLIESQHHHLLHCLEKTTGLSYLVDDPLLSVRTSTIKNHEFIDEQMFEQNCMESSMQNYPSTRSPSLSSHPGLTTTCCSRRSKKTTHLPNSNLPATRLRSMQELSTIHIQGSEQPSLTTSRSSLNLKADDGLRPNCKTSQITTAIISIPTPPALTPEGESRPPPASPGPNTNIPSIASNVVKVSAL
Chain of Neuronal acetylcholine receptor subunit alpha-7 (Homo sapiens) (P36544 whole entry): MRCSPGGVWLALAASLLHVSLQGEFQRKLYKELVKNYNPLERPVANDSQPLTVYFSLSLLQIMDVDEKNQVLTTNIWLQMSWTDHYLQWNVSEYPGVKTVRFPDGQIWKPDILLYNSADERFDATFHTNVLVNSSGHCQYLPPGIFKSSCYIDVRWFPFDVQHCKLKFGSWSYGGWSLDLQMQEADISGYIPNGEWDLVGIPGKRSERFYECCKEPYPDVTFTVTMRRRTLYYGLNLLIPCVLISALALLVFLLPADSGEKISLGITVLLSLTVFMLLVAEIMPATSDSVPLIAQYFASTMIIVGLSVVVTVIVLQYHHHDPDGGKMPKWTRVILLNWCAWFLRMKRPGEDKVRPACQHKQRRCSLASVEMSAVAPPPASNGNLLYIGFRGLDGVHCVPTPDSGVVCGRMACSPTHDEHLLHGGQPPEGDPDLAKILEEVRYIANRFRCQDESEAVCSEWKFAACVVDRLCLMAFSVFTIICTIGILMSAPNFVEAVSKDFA
Chain of Inward rectifier potassium channel 2 (P63252 whole entry): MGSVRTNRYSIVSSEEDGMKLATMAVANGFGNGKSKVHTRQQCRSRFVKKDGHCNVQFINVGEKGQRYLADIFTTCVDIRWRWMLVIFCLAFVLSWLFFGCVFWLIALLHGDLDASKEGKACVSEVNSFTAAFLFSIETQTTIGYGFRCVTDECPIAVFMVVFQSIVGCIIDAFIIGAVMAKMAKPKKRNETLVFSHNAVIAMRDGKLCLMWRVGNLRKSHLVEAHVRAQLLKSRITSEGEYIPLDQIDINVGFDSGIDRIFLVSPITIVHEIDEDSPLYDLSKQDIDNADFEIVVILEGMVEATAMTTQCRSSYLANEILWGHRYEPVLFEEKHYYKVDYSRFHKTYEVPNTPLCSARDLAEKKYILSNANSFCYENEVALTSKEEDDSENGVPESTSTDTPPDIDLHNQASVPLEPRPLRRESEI

Question: Which inhibition [1] does the source give for `O=C(Nc1cc(F)c(Br)cc1C(=O)O)c1ccc(SC(F)(F)F)cc1` here?
Answer: 55%

Question: And the Activity [2]?
Answer: 101%

Question: And the inhibition at 30 µM [3]?
Answer: 57%

Question: And the EC50 [4]?
Answer: 6.1 µM

Question: And the inhibition [5]?
Answer: 77%

Question: And the Activity [6]?
Answer: -32%

Question: What about the fraction unbound [7] of the same compound?
Answer: 0.003

Question: And the inhibition [8]?
Answer: 79%

Question: And the Activity [9]?
Answer: -9%

Question: And the inhibition [10]?
Answer: 70%

Question: What about the half-life [11] of the same compound?
Answer: 6.3 h

Question: And the Cmax [12]?
Answer: 8.8 µM

Question: And the inhibition [13]?
Answer: 76%

Question: What about the inhibition [14] of the same compound?
Answer: 67%

Question: What about the inhibition [15] of the same compound?
Answer: 69%

Question: What about the inhibition [16] of the same compound?
Answer: 79%

Question: What about the EC50 [17] of the same compound?
Answer: 5.5 µM

Question: And the inhibition [18]?
Answer: 94%

Question: And the inhibition [19]?
Answer: 39%

Question: And the AUC [20]?
Answer: 60.6 µM·h

Question: And the inhibition [21]?
Answer: 90%

Question: What about the fraction unbound [22] of the same compound?
Answer: 0.041

Question: And the Activity [23]?
Answer: -21%

Question: What about the inhibition [24] of the same compound?
Answer: 70%

Question: And the inhibition [25]?
Answer: 79%

Question: What about the inhibition [26] of the same compound?
Answer: 7%

Question: And the Activity [27]?
Answer: 84%

Question: And the Activity [28]?
Answer: -16%

Question: What about the fraction unbound [29] of the same compound?
Answer: 0.052

Question: What does the source list for `c1ccc(-c2nnn[nH]2)c(Nc2cccc3c2CCCC3)c1`?
Answer: Activity [2]: 109%; EC50 [4]: 5.2 µM; fraction unbound [7]: < 0.001; EC50 [17]: 7.7 µM; half-life [30]: 3 min; fraction unbound [22]: 0.001; Activity [27]: 133%
